# Laboratory results as given in patent US9302999B2, “Substituted triazoles as herbicides” (E. I. DU PONT DE NEMOURS AND COMPANY, priority 2012, dated 2016).
# Like-named read-outs stand apart in the source and are kept apart here.
# Legend:
# Type in all cases: in vivo
# [1] = system: crabgrass, large (large crabgrass, Digitaria sanguinalis); assay: Test A pre-/postemergence: crabgrass, large; settings: Digitaria sanguinalis, 240 h; for pest or weed control at 125 g/ha: 125 g ai/ha; for pest or weed control at 500 g/ha: 500 g ai/ha
# Procedure, shortened: (§1)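 Soil medium was loam blended with sand; treatments pre- and postemergence were applied concurrently, postemergence at one- to two-leaf stage. Approximately ten days in greenhouse preceded visual comparison with untreated controls, scored 0 (no effect) to 100 (complete control).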
# [2] = system: foxtail, giant (giant foxtail, Setaria faberii); assay: Test A pre-/postemergence: foxtail, giant; settings: Setaria faberi, 240 h; for pest or weed control at 125 g/ha: 125 g ai/ha; for pest or weed control at 500 g/ha: 500 g ai/ha
# Procedure, shortened: as §1
# [3] = system: pigweed (Amaranthus retroflexus); assay: Test A pre-/postemergence: pigweed; settings: Amaranthus retroflexus, 240 h; for pest or weed control at 125 g/ha: 125 g ai/ha; for pest or weed control at 500 g/ha: 500 g ai/ha
# Procedure, shortened: as §1
# [4] = system: wheat (Triticum aestivum); assay: Test A pre-/postemergence: wheat; settings: Triticum aestivum, 240 h; for plant injury at 125 g/ha: 125 g ai/ha; for plant injury at 500 g/ha: 500 g ai/ha
# Procedure, shortened: as §1
# wild oat (Avena fatua) = assay: Test C pre-/postemergence: wild oat
# Procedure, shortened: (§2)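 Preemergence on seeds in loam/sand, postemergence on 2–18 cm (1–4-leaf) plants in peat-based medium; compounds in non-phytotoxic solvent with surfactant. After 13–15 days in greenhouse, visual rating versus controls, 0 (no effect) to 100 (complete control).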
# [5] = system: foxtail, giant (giant foxtail, Setaria faberii); assay: Test C pre-/postemergence: foxtail, giant
# Procedure, shortened: as §2
# [6] = system: nightshade (eastern black nightshade, Solanum ptycanthum); assay: Test C pre-/postemergence: nightshade; settings: Preemergence
# Procedure, shortened: as §2
# [7] = system: nutsedge, yellow (yellow nutsedge, Cyperus esculentus); assay: Test C pre-/postemergence: nutsedge, yellow
# Text: (§3) Seeds of plant species selected from blackgrass (Alopecurus myosuroides), bromegrass, downy (downy bromegrass, Bromus tectorum), foxtail, green (green foxtail, Setaria viridis), ryegrass, Italian (Italian ryegrass, Lolium multiflorum), winter wheat (Triticum aestivum), wild oat (Avena fatua), galium (catchweed bedstraw, Galium aparine), bermudagrass (Cynodon dactylon), surinam grass (Brachiaria decumbens), cocklebur (common cocklebur, Xanthium strumarium), corn (Zea mays), large crabgrass (Digitaria sanguinalis), woolly cupgrass (Eriochloa villosa), foxtail, giant (giant foxtail, Setaria faberii), goosegrass (Eleusine indica), johnsongrass (Sorghum halepense), kochia (Kochia scoparia), lambsquarters (Chenopodium album), morningglory (Ipomoea coccinea), nightshade (eastern black nightshade, Solanum ptycanthum), nutsedge, yellow (yellow nutsedge, Cyperus esculentus), pigweed (Amaranthus retroflexus), ragweed (common ragweed, Ambrosia elation), soybean (Glycine max), common (oilseed) sunflower (Helianthus annuus), Russian thistle (Salsola kali) and velvetleaf (Abutilon theophrasti) were planted into a blend of loam soil and sand and treated preemergence with test chemicals formulated in a non-phytotoxic solvent mixture which included a surfactant.
# (§4) At the same time, plants selected from these crop and weed species and also barley (winter barley, Hordeum vulgare), canarygrass (Phalaris minor), chickweed (common chickweed, Stellaria media) windgrass (Apera spica-venti) and deadnettle (henbit deadnettle, Lamium amplexicaule) were planted in pots containing Redi-Earth® planting medium (Scotts Company, 14111 Scottslawn Road, Marysville, Ohio 43041) comprising spaghnum peat moss, vermiculite, wetting agent and starter nutrients and treated with postemergence applications of test chemicals formulated in the same manner. Plants ranged in height from 2 to 18 cm (1- to 4-leaf stage) for postemergence treatments.
# (§5) Treated plants and controls were maintained in a greenhouse for 13 to 15 days, after which time all species were compared to controls and visually evaluated. Plant response ratings, summarized in Table C, are based on a scale of 0 to 100 where 0 is no effect and 100 is complete control. A dash (-) response means no test result.
# [8] = system: pigweed (Amaranthus retroflexus); assay: Test C pre-/postemergence: pigweed
# Text: as §3, §4, §5
# soybean (Glycine max) = assay: Test C pre-/postemergence: soybean
# Text: as §3, §4, §5
# [9] = Postemergence, 31 g ai/ha, scale 0 to 100 (0 no effect, 100 complete control)
# [10] = Postemergence, 62 g ai/ha, scale 0 to 100 (0 no effect, 100 complete control)
# [11] = Postemergence, 125 g ai/ha, scale 0 to 100, 0 no effect, 100 complete control
# [12] = Postemergence, 250 g ai/ha, scale 0 to 100
# [13] = Preemergence, 31 g ai/ha, scale of 0 to 100, 0 is no effect, 100 is complete control
# [14] = Preemergence, 62 g ai/ha, scale of 0 to 100, 0 is no effect, 100 is complete control
# [15] = Preemergence, 125 g ai/ha, scale 0 to 100, 0 no effect, 100 complete control
# [16] = Preemergence, 250 g ai/ha, scale 0 to 100, 0 no effect, 100 complete control
smiles,measurement,setting,value
"FC(F)(F)COc1nn(-c2ccc(C(F)(F)F)cc2)nc1Cc1ccnc(C(F)(F)F)c1 [Compound 14, 4-[[5-(2,2,2-trifluoroethoxy)-2-[4-(trifluoromethyl)phenyl]-2H-1,2,3-triazol-4-yl]methyl]-2-(trifluoromethyl)pyridine]",pest or weed control at 125 g/ha,"[1]; post-emergence, Postemergence, 0 to 100 scale, 0 is no effect, 100 is complete control, read-out: Crabgrass, Large plant response rating",80%
same,pest or weed control at 500 g/ha,"[1]; post-emergence, Postemergence, visual rating on 0 to 100 scale (0 no effect, 100 complete control), approximately ten days, read-out: Crabgrass, Large plant response rating",90%
same,pest or weed control at 125 g/ha,"[1]; pre-emergence, Preemergence, 0 to 100 scale (0 no effect, 100 complete control), read-out: Plant response rating, Crabgrass, Large",90%
same,pest or weed control at 500 g/ha,"[1]; pre-emergence, Preemergence, 0 to 100 scale, 0 is no effect, 100 is complete control, read-out: Plant response rating, Crabgrass, Large",100%
same,pest or weed control at 125 g/ha,"[2]; post-emergence, Postemergence, 0 to 100 scale, 0 is no effect, 100 is complete control, read-out: Foxtail, Giant plant response rating",80%
same,pest or weed control at 500 g/ha,"[2]; post-emergence, Postemergence, visual rating on 0 to 100 scale (0 no effect, 100 complete control), approximately ten days, read-out: Foxtail, Giant plant response rating",90%
same,pest or weed control at 125 g/ha,"[2]; pre-emergence, Preemergence, 0 to 100 scale (0 no effect, 100 complete control), read-out: Plant response rating, Foxtail, Giant",100%
same,pest or weed control at 500 g/ha,"[2]; pre-emergence, Preemergence, 0 to 100 scale, 0 is no effect, 100 is complete control, read-out: Plant response rating, Foxtail, Giant",100%
same,pest or weed control at 125 g/ha,"[3]; post-emergence, Postemergence, 0 to 100 scale, 0 is no effect, 100 is complete control, read-out: Pigweed plant response rating",100%
same,pest or weed control at 500 g/ha,"[3]; post-emergence, Postemergence, visual rating on 0 to 100 scale (0 no effect, 100 complete control), approximately ten days, read-out: Pigweed plant response rating",100%
same,pest or weed control at 125 g/ha,"[3]; pre-emergence, Preemergence, 0 to 100 scale (0 no effect, 100 complete control), read-out: Plant response rating, Pigweed",90%
same,pest or weed control at 500 g/ha,"[3]; pre-emergence, Preemergence, 0 to 100 scale, 0 is no effect, 100 is complete control, read-out: Plant response rating, Pigweed",100%
same,plant injury at 125 g/ha,"[4]; post-emergence, Postemergence, 0 to 100 scale, 0 is no effect, 100 is complete control, read-out: Wheat plant response rating",30%
same,plant injury at 500 g/ha,"[4]; post-emergence, Postemergence, visual rating on 0 to 100 scale (0 no effect, 100 complete control), approximately ten days, read-out: Wheat plant response rating",50%
same,plant injury at 125 g/ha,"[4]; pre-emergence, Preemergence, 0 to 100 scale (0 no effect, 100 complete control), read-out: Plant response rating, Wheat",30%
same,plant injury at 500 g/ha,"[4]; pre-emergence, Preemergence, 0 to 100 scale, 0 is no effect, 100 is complete control, read-out: Plant response rating, Wheat",50%
same,"Plant response rating, Oat, Wild",wild oat (Avena fatua); [9],25
same,"Plant response rating, Oat, Wild",wild oat (Avena fatua); [10],45
same,"Plant response rating, Oat, Wild",wild oat (Avena fatua); [11],50
same,"Plant response rating, Oat, Wild",wild oat (Avena fatua); [12],60
same,"Plant response rating, Oat, Wild",wild oat (Avena fatua); [13],20
same,"Plant response rating, Oat, Wild",wild oat (Avena fatua); [14],40
same,"Plant response rating, Oat, Wild",wild oat (Avena fatua); [15],70
same,"Plant response rating, Oat, Wild",wild oat (Avena fatua); [16],90
same,"Plant response rating, Foxtail, Giant",[5]; [9],10
same,"Plant response rating, Foxtail, Giant",[5]; [10],15
same,"Plant response rating, Foxtail, Giant",[5]; [11],30
same,"Plant response rating, Foxtail, Giant",[5]; [12],35
same,"Plant response rating, Foxtail, Giant",[5]; [13],95
same,"Plant response rating, Foxtail, Giant",[5]; [14],98
same,"Plant response rating, Foxtail, Giant",[5]; [15],100
same,"Plant response rating, Foxtail, Giant",[5]; [16],100
same,"Plant response rating, Nightshade","[6]; 31 g ai/ha, scale of 0 to 100, 0 is no effect, 100 is complete control",55
same,"Plant response rating, Nightshade","[6]; 62 g ai/ha, scale of 0 to 100, 0 is no effect, 100 is complete control",80
same,"Plant response rating, Nightshade","[6]; 125 g ai/ha, scale 0 to 100, 0 no effect, 100 complete control",95
same,"Plant response rating, Nightshade","[6]; 250 g ai/ha, scale 0 to 100, 0 no effect, 100 complete control",98
same,"Plant response rating, Nutsedge, Yellow",[7]; [9],0
same,"Plant response rating, Nutsedge, Yellow",[7]; [10],0
same,"Plant response rating, Nutsedge, Yellow",[7]; [11],0
same,"Plant response rating, Nutsedge, Yellow",[7]; [12],0
same,"Plant response rating, Nutsedge, Yellow",[7]; [13],0
same,"Plant response rating, Nutsedge, Yellow",[7]; [14],0
same,"Plant response rating, Nutsedge, Yellow",[7]; [15],0
same,"Plant response rating, Nutsedge, Yellow",[7]; [16],0
same,"Plant response rating, Pigweed",[8]; [9],45
same,"Plant response rating, Pigweed",[8]; [10],60
same,"Plant response rating, Pigweed",[8]; [11],80
same,"Plant response rating, Pigweed",[8]; [12],85
same,"Plant response rating, Pigweed",[8]; [13],100
same,"Plant response rating, Pigweed",[8]; [14],100
same,"Plant response rating, Pigweed",[8]; [15],100
same,"Plant response rating, Pigweed",[8]; [16],100
same,"Plant response rating, Soybean",soybean (Glycine max); [9],25
same,"Plant response rating, Soybean",soybean (Glycine max); [10],25
same,"Plant response rating, Soybean",soybean (Glycine max); [11],30
same,"Plant response rating, Soybean",soybean (Glycine max); [12],35
same,"Plant response rating, Soybean",soybean (Glycine max); [13],0
same,"Plant response rating, Soybean",soybean (Glycine max); [14],0
same,"Plant response rating, Soybean",soybean (Glycine max); [15],0
same,"Plant response rating, Soybean",soybean (Glycine max); [16],0
